From ChEMBL document CHEMBL1201862, “PubChem BioAssay data set” (2004)
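Grown in 96-well plates, cells were treated for 48 hours with each compound at five concentrations. Insufficient inhibition: endpoint recorded as highest concentration tested. GI50: concentration for 50% inhibition of growth.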 The source made the active and inactive calls. Rule as the data show it: active = GI50 up to about 1.1 µM and inactive = higher.

Tests used:
Experiment in all cases: inhibition of tumour cell growth, NCI panel, 48 h
NCI-H23 = system: NCI-H23
NCI-H522 = system: NCI-H522
NCI-H460 = system: NCI-H460
SK-OV-3 = system: SK-OV-3
UO-31 = system: UO-31
SNB-19 = system: SNB-19
DU-145 = system: DU-145
SK-MEL-5 = system: SK-MEL-5
U-251 = system: U-251
SK-MEL-28 = system: SK-MEL-28
OVCAR-5 = system: OVCAR-5
IGROV-1 = system: IGROV-1
UACC-62 = system: UACC-62
PC-3 = system: PC-3
MCF7 = system: MCF7
HCC 2998 = system: HCC 2998
A549 = system: A549
HL-60 = system: HL-60
TK-10 = system: TK-10
MDA-MB-231 = system: MDA-MB-231

Measured: GI50

O=C(Nc1ccccc1)Nn1c(-c2cccs2)nc2ccc(I)cc2c1=O
inactive: NCI-H23 27.3 µM | NCI-H522 14.3 µM | NCI-H460 26.2 µM | SK-OV-3 20.9 µM | UO-31 21.2 µM | SNB-19 42.2 µM | DU-145 24.3 µM | SK-MEL-5 17.1 µM | U-251 23.9 µM | SK-MEL-28 20.5 µM | OVCAR-5 27.7 µM | IGROV-1 19.7 µM | UACC-62 28.7 µM | PC-3 27.4 µM | MCF7 29.1 µM | HCC 2998 25.8 µM | A549 19.2 µM | HL-60 1.41 µM | TK-10 28.4 µM

CC(C)N1CC2CC(CN(C(=O)c3ccccc3)C2)C1.[O-][Cl+3]([O-])([O-])O
inactive: NCI-H23 > 100 µM | NCI-H522 > 100 µM | NCI-H460 > 100 µM | SK-OV-3 > 100 µM | UO-31 > 100 µM | SNB-19 > 100 µM | SK-MEL-5 > 100 µM | U-251 > 100 µM | SK-MEL-28 > 100 µM | OVCAR-5 > 100 µM | IGROV-1 > 100 µM | UACC-62 > 100 µM | HCC 2998 > 100 µM | A549 > 100 µM | HL-60 > 100 µM | TK-10 > 100 µM

COc1cc(C2OC(N)=C(C#N)C3=C2C(C)CCC3)cc(OC)c1OC (configuration not stated)
inactive: NCI-H23 > 100 µM | SK-OV-3 80.7 µM | UO-31 > 100 µM | SNB-19 72.3 µM | DU-145 95.9 µM | SK-MEL-5 > 100 µM | U-251 > 100 µM | SK-MEL-28 > 100 µM | OVCAR-5 > 100 µM | IGROV-1 47.1 µM | UACC-62 > 100 µM | PC-3 81.5 µM | MDA-MB-231 30.3 µM | MCF7 > 100 µM | HL-60 > 100 µM | TK-10 > 100 µM

COC(=O)CSC(=S)Nc1nnc(NC(=S)SCOC(C)=O)n1C(=S)SCC(=O)OC
inactive: NCI-H23 > 100 µM | NCI-H460 > 100 µM | UO-31 > 100 µM | SNB-19 > 100 µM | DU-145 > 100 µM | SK-MEL-5 > 100 µM | U-251 > 100 µM | SK-MEL-28 > 100 µM | OVCAR-5 > 100 µM | IGROV-1 > 100 µM | UACC-62 > 100 µM | PC-3 > 100 µM | MCF7 > 100 µM | HCC 2998 > 100 µM | HL-60 > 100 µM

CC1=C(/C(C)=N/NC(=O)C(N)=O)Sc2ccccc2N1
inactive: NCI-H23 > 100 µM | NCI-H522 > 100 µM | NCI-H460 > 100 µM | SK-OV-3 > 100 µM | UO-31 > 100 µM | SNB-19 > 100 µM | SK-MEL-5 > 100 µM | U-251 > 100 µM | SK-MEL-28 > 100 µM | OVCAR-5 > 100 µM | IGROV-1 > 100 µM | UACC-62 > 100 µM | HCC 2998 > 100 µM | A549 > 100 µM | HL-60 > 100 µM | TK-10 > 100 µM

COc1cc(/C=C/C(=O)c2sc(Nc3ccccc3)nc2C)ccc1O
inactive: NCI-H23 > 100 µM | NCI-H522 42.4 µM | NCI-H460 > 100 µM | SK-OV-3 > 100 µM | UO-31 43.6 µM | SNB-19 > 100 µM | SK-MEL-5 38.4 µM | U-251 > 100 µM | SK-MEL-28 > 100 µM | OVCAR-5 > 100 µM | IGROV-1 > 100 µM | UACC-62 82.8 µM | HCC 2998 > 100 µM | A549 71.8 µM | HL-60 44.2 µM | TK-10 > 100 µM

O=C(c1ccc(Cl)cc1)c1ccc(OCCCCCCCCCCOc2ccc(C(=O)c3ccc(Cl)cc3)cc2)cc1
inactive: NCI-H23 > 100 µM | NCI-H522 > 100 µM | NCI-H460 > 100 µM | SK-OV-3 > 100 µM | UO-31 > 100 µM | SNB-19 > 100 µM | SK-MEL-5 > 100 µM | U-251 > 100 µM | SK-MEL-28 > 100 µM | OVCAR-5 > 100 µM | IGROV-1 > 100 µM | UACC-62 > 100 µM | HCC 2998 > 100 µM | A549 > 100 µM | HL-60 > 100 µM | TK-10 > 100 µM

COc1cc(C(=O)C/C(CCC(=O)Nc2ccccc2[N+](=O)[O-])=N\NC(N)=O)ccc1O
inactive: NCI-H23 > 100 µM | NCI-H522 > 100 µM | NCI-H460 > 100 µM | SK-OV-3 > 100 µM | UO-31 > 100 µM | SNB-19 > 100 µM | SK-MEL-5 > 100 µM | U-251 > 100 µM | SK-MEL-28 > 100 µM | OVCAR-5 > 100 µM | IGROV-1 > 100 µM | UACC-62 > 100 µM | HCC 2998 > 100 µM | A549 > 100 µM | HL-60 > 100 µM | TK-10 > 100 µM

Nc1ccc(Cc2ccc(N)c(C(=O)O)c2)cc1C(=O)O
inactive: NCI-H23 > 100 µM | NCI-H522 > 100 µM | NCI-H460 > 100 µM | SK-OV-3 > 100 µM | UO-31 > 100 µM | SNB-19 > 100 µM | SK-MEL-5 > 100 µM | U-251 > 100 µM | SK-MEL-28 > 100 µM | OVCAR-5 > 100 µM | IGROV-1 > 100 µM | UACC-62 > 100 µM | PC-3 > 100 µM | MDA-MB-231 > 100 µM | MCF7 > 100 µM | HCC 2998 > 100 µM | A549 > 100 µM | HL-60 > 100 µM | TK-10 > 100 µM

O=C(/C=C/c1ccc(Br)cc1)c1ccc(NCc2nc3ccccc3[nH]2)cc1
inactive: NCI-H23 4.95 µM | NCI-H522 3.41 µM | NCI-H460 8.22 µM | SK-OV-3 28.4 µM | UO-31 7.73 µM | SNB-19 8.79 µM | SK-MEL-5 4.4 µM | U-251 3.83 µM | SK-MEL-28 18.6 µM | OVCAR-5 > 59.8 µM | IGROV-1 17.3 µM | UACC-62 7.1 µM | HCC 2998 6.56 µM | A549 5.77 µM | HL-60 5.86 µM | TK-10 11.1 µM

COC(=O)[C@H](Cc1ccccc1)NC(=O)N1CCN(C(=O)N[C@@H](Cc2ccccc2)C(=O)OC)CCN(C(=O)N[C@@H](Cc2ccccc2)C(=O)OC)CC1
inactive: NCI-H23 > 100 µM | NCI-H522 > 100 µM | NCI-H460 > 100 µM | SK-OV-3 > 100 µM | UO-31 > 100 µM | SNB-19 > 100 µM | DU-145 > 100 µM | SK-MEL-5 > 100 µM | U-251 > 100 µM | SK-MEL-28 > 100 µM | OVCAR-5 > 100 µM | IGROV-1 > 100 µM | UACC-62 > 100 µM | PC-3 > 100 µM | MCF7 > 100 µM | HCC 2998 > 100 µM | A549 > 100 µM | HL-60 > 100 µM | TK-10 > 100 µM

Cc1cc(C)c(-n2c(C)c(C)c(C#N)c2N)c(C)c1
inactive: NCI-H23 39 µM | NCI-H522 21 µM | NCI-H460 22.4 µM | SK-OV-3 33 µM | UO-31 83.2 µM | SNB-19 87.7 µM | DU-145 38.1 µM | SK-MEL-5 14.9 µM | U-251 17.4 µM | SK-MEL-28 37.1 µM | OVCAR-5 > 100 µM | IGROV-1 37 µM | PC-3 25.8 µM | MDA-MB-231 33.6 µM | A549 36.5 µM | HL-60 15.1 µM | TK-10 32.4 µM

Cc1c(/N=N/c2ccc(Cl)cc2)c(-c2ccccc2)n(C2OC(CO)C(O)C(O)C2O)c(=S)c1C#N (configuration not stated)
inactive: NCI-H23 10.7 µM | NCI-H460 18.8 µM | SK-OV-3 16.9 µM | UO-31 19.8 µM | SNB-19 12.3 µM | DU-145 19 µM | SK-MEL-5 13.1 µM | U-251 12.7 µM | SK-MEL-28 15.4 µM | OVCAR-5 19.2 µM | IGROV-1 15.1 µM | UACC-62 13.4 µM | PC-3 10.6 µM | MDA-MB-231 20.3 µM | MCF7 15.2 µM | A549 17.3 µM | HL-60 32.6 µM | TK-10 21.2 µM

Cc1cc(S(=O)(=O)O)ccc1/N=N/c1ccc(/N=N/c2c(O)ccc3ccccc23)c(C)c1
inactive: NCI-H23 33.2 µM | NCI-H522 26 µM | SK-OV-3 > 100 µM | UO-31 80.4 µM | SNB-19 > 100 µM | DU-145 > 100 µM | SK-MEL-5 > 100 µM | U-251 36.4 µM | SK-MEL-28 67.3 µM | OVCAR-5 > 100 µM | IGROV-1 54.7 µM | UACC-62 28.8 µM | PC-3 > 100 µM | MDA-MB-231 20.5 µM | A549 50.4 µM | TK-10 74 µM

NC(CCP(=O)(O)O)C(=O)O (configuration not stated)
inactive: NCI-H23 > 100 µM | NCI-H522 > 100 µM | NCI-H460 > 100 µM | UO-31 > 100 µM | SNB-19 > 100 µM | SK-MEL-5 > 100 µM | U-251 > 100 µM | SK-MEL-28 > 100 µM | OVCAR-5 > 100 µM | IGROV-1 > 100 µM | UACC-62 > 100 µM | PC-3 > 100 µM | MDA-MB-231 > 100 µM | A549 > 100 µM | HL-60 > 100 µM | TK-10 > 100 µM

Cn1c2ccccc2c2[nH]cc3nc4ccccc4c-3c21
inactive: NCI-H23 17.1 µM | NCI-H522 13.5 µM | NCI-H460 15.5 µM | SK-OV-3 24.3 µM | UO-31 13 µM | SNB-19 26.1 µM | SK-MEL-5 18.1 µM | U-251 18.2 µM | SK-MEL-28 14.8 µM | OVCAR-5 19.2 µM | IGROV-1 18 µM | UACC-62 18.5 µM | HCC 2998 > 100 µM | A549 22.6 µM | HL-60 20.6 µM | TK-10 22.3 µM
